Laboratory results reported in patent EP3072514A1, “Novel oral anticoagulants (NOACs) for preventing development and aggravation of atrial fibrillation” (Université Pierre et Marie Curie - Paris 6 (UPMC), priority 2015, dated 2016).

Tests used:
[1] = tested on: rats with occlusion of left coronary artery followed by reperfusion (I/R); assay: Echocardiographic evaluation of left atrium and left ventricle in rats after ischemia/reperfusion (I/R); assay type: in vivo, Male OFA Sprague-dawley rats
Text: • Figure 1 is a combination of two graphs showing left atrium (LA) area after one month of treatment with DTI Dabigatran (A) or S35792 (B). Vehicle (V) is 60% H2O/40% PEG 300 for dabigatran and saline for S35972. Treatment of rats started just after thoracotomy without (Sham) or with occlusion of left coronary artery followed by reperfusion (I/R). […] Vehicle (V) is 60% H2O/40% PEG 300 for dabigatran and saline for S35972. Treatment of rats started just after thoracotomy without (Sham) or with occlusion of left coronary artery followed by reperfusion (I/R). Results are presented as mean +/- S.E.M. * P<0.05; ** P<0.001, *** P<0.001 vs Sham; #P<0.05 vs untreated I/R. • Figure 3 is a combination of two graphs showing thrombin time (TT), which reflects anticoagulant activity, and plasma concentrations of Dabigatran (A) and S35792 (B) in rats after throracotomy with occlusion of left coronary artery followed by reperfusion (I/R). Vehicle (V) is 60% H2O/40% PEG 300 for dabigatran and saline for S35972. Tests were carried out on blood collected by cardiac puncture at sacrifice (i.e. for Dabigatran, 90 minutes after last oral administration). DTI plasma levels are quantified using LC-MS/MS. TT are expressed as mean +/- S.E.M with reference to the mean value of sham animals that underwent thoracotomy only. *** P<0.001 vs untreated I/R. • Figure 4 is a combination of three graphs showing left atrium (LA) area (A) and diameter (B) and left ventricle end-diastolic (LVED) diameter (C) after two months of treatment with S35972. Treatment of rats started just after thoracotomy without (Sham) or with occlusion of left coronary artery followed by reperfusion (I/R). LA area was measured by bidimensional echocardiography. LA and LVED diameters were measured in time-motion mode. Results are presented as mean +/- S.E.M. *P<0.05, **P<0.01 and *** P<0.001 vs Sham; ^#P<0.05 ^###P<0.001 vs untreated I/R. • Figure 5 is a graph showing the impact of S35972 administration during two months on the duration of an episode of AF in rats undergone thoracotomy without (Sham) or with occlusion of left coronary artery followed by reperfusion (I/R). AF duration is measured as the time between the end of the electric stimulation and the return to sinusoidal rhythm. […] Rats undergone thoracotomy without (Sham) or with occlusion of left coronary artery followed by reperfusion (I/R). Expression of mRNA was measured with real-time qPCR. […] Treatment of rats started one month post thoracotomy without (Sham) or with occlusion of left coronary artery followed by reperfusion (I/R). LA area was measured by bidimensional echocardiography. LVED and LA diameters were measured in time-motion mode. […] Rats undergone thoracotomy without (Sham) or with occlusion of left coronary artery followed by reperfusion (I/R). AF duration is measured as the time between the end of the electric stimulation and return to sinusoidal rhythm. Results are presented as mean +/- S.E.M.
Animals were anesthetized with 30 mg/kg sodium pentobarbital, and then intubated and ventilated at 60 respirations/min while body temperature was maintained at 37°C. Rats underwent thoracotomy and their left coronary artery was either left intact (Sham) or occluded with a 4.0 silk suture at 1 mm from the artery origin. Ischemia was maintained for 30 min and the clamp was removed to initiate a definitive reperfusion phase. […]

[2] = tested on: blood coagulation; assay: Thrombin time (TT) on blood collected by cardiac puncture at sacrifice of I/R rats; assay type: in vivo, Male OFA Sprague-dawley rats; conditions: subcutaneous osmotic minipump, with reference to the mean value of sham animals
Text: • Figure 1 is a combination of two graphs showing left atrium (LA) area after one month of treatment with DTI Dabigatran (A) or S35792 (B). Vehicle (V) is 60% H2O/40% PEG 300 for dabigatran and saline for S35972. Treatment of rats started just after thoracotomy without (Sham) or with occlusion of left coronary artery followed by reperfusion (I/R). […] Vehicle (V) is 60% H2O/40% PEG 300 for dabigatran and saline for S35972. Treatment of rats started just after thoracotomy without (Sham) or with occlusion of left coronary artery followed by reperfusion (I/R). Results are presented as mean +/- S.E.M. * P<0.05; ** P<0.001, *** P<0.001 vs Sham; #P<0.05 vs untreated I/R. • Figure 3 is a combination of two graphs showing thrombin time (TT), which reflects anticoagulant activity, and plasma concentrations of Dabigatran (A) and S35792 (B) in rats after throracotomy with occlusion of left coronary artery followed by reperfusion (I/R). Vehicle (V) is 60% H2O/40% PEG 300 for dabigatran and saline for S35972. […] DTI plasma levels are quantified using LC-MS/MS. TT are expressed as mean +/- S.E.M with reference to the mean value of sham animals that underwent thoracotomy only. *** P<0.001 vs untreated I/R. • Figure 4 is a combination of three graphs showing left atrium (LA) area (A) and diameter (B) and left ventricle end-diastolic (LVED) diameter (C) after two months of treatment with S35972. […] LA area was measured by bidimensional echocardiography. LA and LVED diameters were measured in time-motion mode. […] AF duration is measured as the time between the end of the electric stimulation and the return to sinusoidal rhythm. […] Expression of mRNA was measured with real-time qPCR. […] Expression of mRNA was measured with real-time qPCR. […] Expression of mRNA was measured with real-time qPCR. […] LA area was measured by bidimensional echocardiography. LVED and LA diameters were measured in time-motion mode. […] AF duration is measured as the time between the end of the electric stimulation and return to sinusoidal rhythm. […]

[3] = tested on: paroxysmal AF; assay: Duration of an AF episode induced by rapid stimulation of the left atrium with an esophageal electrode in I/R rats; assay type: in vivo, Male OFA Sprague-dawley rats; conditions: 6 mg/kg/day
Text: • Figure 1 is a combination of two graphs showing left atrium (LA) area after one month of treatment with DTI Dabigatran (A) or S35792 (B). Vehicle (V) is 60% H2O/40% PEG 300 for dabigatran and saline for S35972. Treatment of rats started just after thoracotomy without (Sham) or with occlusion of left coronary artery followed by reperfusion (I/R). Results are presented as mean +/- S.E.M, *P<0.05, **P<0.01 and *** P<0.001 vs Sham; ^##P<0.01 and ^###P<0.001 vs untreated I/R. • Figure 2 is a combination of graphs showing left ventricular end-diastolic (LVED) diameter and fractional shortening (FS) after one month of treatment with Dabigatran (A) or S35792 (B). […] DTI plasma levels are quantified using LC-MS/MS. TT are expressed as mean +/- S.E.M with reference to the mean value of sham animals that underwent thoracotomy only. *** P<0.001 vs untreated I/R. • Figure 4 is a combination of three graphs showing left atrium (LA) area (A) and diameter (B) and left ventricle end-diastolic (LVED) diameter (C) after two months of treatment with S35972. […] LA area was measured by bidimensional echocardiography. LA and LVED diameters were measured in time-motion mode. […] AF duration is measured as the time between the end of the electric stimulation and the return to sinusoidal rhythm. […] Expression of mRNA was measured with real-time qPCR. […] Expression of mRNA was measured with real-time qPCR. […]

[4] = Plasma concentration by LC-MS/MS in I/R rats; design: species or system Male OFA Sprague-dawley rats; conditions: rat, in vivo, sc
Text: • Figure 1 is a combination of two graphs showing left atrium (LA) area after one month of treatment with DTI Dabigatran (A) or S35792 (B). Vehicle (V) is 60% H2O/40% PEG 300 for dabigatran and saline for S35972. Treatment of rats started just after thoracotomy without (Sham) or with occlusion of left coronary artery followed by reperfusion (I/R). Results are presented as mean +/- S.E.M, *P<0.05, **P<0.01 and *** P<0.001 vs Sham; ^##P<0.01 and ^###P<0.001 vs untreated I/R. • Figure 2 is a combination of graphs showing left ventricular end-diastolic (LVED) diameter and fractional shortening (FS) after one month of treatment with Dabigatran (A) or S35792 (B). Vehicle (V) is 60% H2O/40% PEG 300 for dabigatran and saline for S35972. Treatment of rats started just after thoracotomy without (Sham) or with occlusion of left coronary artery followed by reperfusion (I/R). Results are presented as mean +/- S.E.M. * P<0.05; ** P<0.001, *** P<0.001 vs Sham; #P<0.05 vs untreated I/R. • Figure 3 is a combination of two graphs showing thrombin time (TT), which reflects anticoagulant activity, and plasma concentrations of Dabigatran (A) and S35792 (B) in rats after throracotomy with occlusion of left coronary artery followed by reperfusion (I/R). Vehicle (V) is 60% H2O/40% PEG 300 for dabigatran and saline for S35972. […] DTI plasma levels are quantified using LC-MS/MS. TT are expressed as mean +/- S.E.M with reference to the mean value of sham animals that underwent thoracotomy only. *** P<0.001 vs untreated I/R. • Figure 4 is a combination of three graphs showing left atrium (LA) area (A) and diameter (B) and left ventricle end-diastolic (LVED) diameter (C) after two months of treatment with S35972. […] LA area was measured by bidimensional echocardiography. LA and LVED diameters were measured in time-motion mode. […] AF duration is measured as the time between the end of the electric stimulation and the return to sinusoidal rhythm. […] Expression of mRNA was measured with real-time qPCR. […] Expression of mRNA was measured with real-time qPCR. […]

[5] = tested on: α-MHC; assay: mRNA expression by real-time qPCR in atria and ventricle of I/R rats; assay type: in vivo, Male OFA Sprague-dawley rats
Text: (§1) • Figure 1 is a combination of two graphs showing left atrium (LA) area after one month of treatment with DTI Dabigatran (A) or S35792 (B). Vehicle (V) is 60% H2O/40% PEG 300 for dabigatran and saline for S35972. Treatment of rats started just after thoracotomy without (Sham) or with occlusion of left coronary artery followed by reperfusion (I/R). […] Vehicle (V) is 60% H2O/40% PEG 300 for dabigatran and saline for S35972. Treatment of rats started just after thoracotomy without (Sham) or with occlusion of left coronary artery followed by reperfusion (I/R). Results are presented as mean +/- S.E.M. * P<0.05; ** P<0.001, *** P<0.001 vs Sham; #P<0.05 vs untreated I/R. • Figure 3 is a combination of two graphs showing thrombin time (TT), which reflects anticoagulant activity, and plasma concentrations of Dabigatran (A) and S35792 (B) in rats after throracotomy with occlusion of left coronary artery followed by reperfusion (I/R). Vehicle (V) is 60% H2O/40% PEG 300 for dabigatran and saline for S35972. Tests were carried out on blood collected by cardiac puncture at sacrifice (i.e. for Dabigatran, 90 minutes after last oral administration). DTI plasma levels are quantified using LC-MS/MS. TT are expressed as mean +/- S.E.M with reference to the mean value of sham animals that underwent thoracotomy only. *** P<0.001 vs untreated I/R. • Figure 4 is a combination of three graphs showing left atrium (LA) area (A) and diameter (B) and left ventricle end-diastolic (LVED) diameter (C) after two months of treatment with S35972. Treatment of rats started just after thoracotomy without (Sham) or with occlusion of left coronary artery followed by reperfusion (I/R). LA area was measured by bidimensional echocardiography. LA and LVED diameters were measured in time-motion mode. Results are presented as mean +/- S.E.M. *P<0.05, **P<0.01 and *** P<0.001 vs Sham; ^#P<0.05 ^###P<0.001 vs untreated I/R. • Figure 5 is a graph showing the impact of S35972 administration during two months on the duration of an episode of AF in rats undergone thoracotomy without (Sham) or with occlusion of left coronary artery followed by reperfusion (I/R). AF duration is measured as the time between the end of the electric stimulation and the return to sinusoidal rhythm. […] Rats undergone thoracotomy without (Sham) or with occlusion of left coronary artery followed by reperfusion (I/R). Expression of mRNA was measured with real-time qPCR. […] Expression of mRNA was measured with real-time qPCR. […] Expression of mRNA was measured with real-time qPCR. […] LA area was measured by bidimensional echocardiography. LVED and LA diameters were measured in time-motion mode. […] AF duration is measured as the time between the end of the electric stimulation and return to sinusoidal rhythm. […]

[6] = tested on: β-MHC; assay: as above; assay type: in vivo, Male OFA Sprague-dawley rats
Text: as §1

[7] = four weeks post-I/R, one month of treatment started just after I/R
[8] = atrium, 6 mg/kg/day for 8 weeks post I/R
[9] = ventricle, 6 mg/kg/day post I/R

## 4-oxo-3-(2-pyridin-2-ylethylamino)-4,6,7,8-tetrahydro-pyrrolo[1,2-a]pyrazine-6-carboxylic acid 2-ethylcarbamoyl methoxy-benzylamide [S35972]
[1]; 6 mg/kg/day for 8 weeks, started just after I/R
  ventricular diameter (LVED diameter): significantly reduces
[1]; [7]
  dilatation of left atrium (left atrium (LA) area): prevent the dilatation of left atrium
  ventricular diameter (LVED diameter): do not impact
  ventricular function (fractional shortening): do not impact
[2]; 3 mg/kg/day
  thrombin time increases by a factor: 3
[2]; 6 mg/kg/day
  thrombin time increases by a factor: 3
[3]; administered 1 month post I/R in rats with dilated atria
  AF duration: tends to decrease AF duration
[3]; eight weeks post I/R
  duration of episode of paroxysmal AF: decreases the duration of this episode of paroxysmal AF to the control values
[4]; 3 mg/kg/day
  plasma concentration: 24.1 ± 5.7 ng/mL
[4]; 6 mg/kg/day
  plasma concentration: 57.2 ± 24.4 ng/mL
[5]; [8]
  expression of α-MHC (mRNA) in left atrium: without impacting the expression of α-MHC
[5]; [9]
  expression of α-MHC (mRNA) in the ventricle: without significant impact on the expression of α-MHC
[6]; [8]
  synthesis of β-MHC (mRNA) in left atrium: prevents the synthesis of β-MHC
[6]; [9]
  synthesis of β-MHC (mRNA) in the ventricle: prevents the synthesis of β-MHC
